Calls of active or inactive are those of the source. No cut-off for these calls is given here.
Key:
MV4-11 [1] = assay: Induction of […] in human MV4-11 cells assessed as change in gammaH2AX level at 12.5 to 200 nM measured after 24 hrs by Western blot analysis; type: functional, cell-based; conditions: dose 12.5-200 nM
[2] = Downregulation of PLK1 in human MV4-11 cells assessed as 2 log fold change at 50 nM measured after 2 hrs by proteomic analysis; type: functional
[3] = molecular target: Cyclin-dependent kinase 1 (Homo sapiens) (UniProt P06493); assay: Inhibition of CDK1 phosphorylation in human MV4-11 cells by measuring residual activity at 100 nM measured after 24 hrs by Western blot assay; type: cell-based
MV4-11 [4] = assay: Induction of apoptosis in human MV4-11 cells assessed as cleaved caspase-3 expression at 100 nM incubated for 24 hrs by Western blot analysis; type: functional, cell-based
[5] = molecular target: Cyclin-dependent kinase 1 (Homo sapiens) (UniProt P06493); assay: Inhibition of CDK1 phosphorylation in human MV4-11 cells by measuring residual activity at 200 nM measured after 24 hrs by Western blot assay; type: cell-based
MV4-11 [6] = assay: Effect on PKMYT1 mRNA expression in human MV4-11 cells at 50 nM measured upto 72 hrs by qRT-PCR assay; type: functional, cell-based
MV4-11 [7] = assay: Induction of cell cycle arrest in human MV4-11 cells assessed as accumulation of cells at G0/G1 phase incubated for 24 hrs by […] PI staining based flow cytometry analysis; type: functional; conditions: dose 12.5-200 nM
MV4-11 [8] = assay: Induction of apoptosis in human MV4-11 cells assessed as increase in early apoptotic cells incubated for 48 hrs by annexin V and PI staining based flow cytometry analysis; type: functional, cell-based; conditions: dose 12.5-200 nM
[9] = Downregulation of JAK2 in human MV4-11 cells assessed as 2 log fold change at 50 nM measured after 2 hrs by proteomic analysis; type: functional
[10] = Reduction in PKMYT1 level in human MV4-11 cells by measuring residual activity at 12.5 nM measured after 24 hrs by Western blot assay (reference value: 100%); type: functional
[11] = molecular target: Cyclin-dependent kinase 1 (Homo sapiens) (UniProt P06493); assay: (§1) Inhibition of CDK1 phosphorylation in human MV4-11 cells assessed as reduction in phosphorylated CDK1 level by measuring residual activity at 50 uM pretreated for 2 hrs with proteasome inhibitor carfilzomib followed by incubation with compound for 3 hrs by Western blot analysis (reference value: 29%); type: cell-based
MV4-11 [12] = assay: Effect on Wee1 mRNA expression in human MV4-11 cells at 50 nM measured upto 72 hrs by qRT-PCR assay; type: functional, cell-based
MV4-11 [13] = assay: Effect on PLK1 expression in human MV4-11 cells at IC50 measured after 6 hrs by Western blot analysis; type: functional, cell-based
[14] = Observed MRTinfinity ICR mouse at 10 mg/kg, iv measured upto 360 mins; type: ADME, organism-based; conditions: in vivo
[15] = molecular target: Cyclin-dependent kinase 1 (Homo sapiens) (UniProt P06493); assay: Inhibition of CDK1 phosphorylation in human MV4-11 cells by measuring residual activity at 25 nM measured after 24 hrs by Western blot assay; type: cell-based
[16] = Reduction in PKMYT1 level in human MV4-11 cells by measuring residual activity at 100 nM measured after 24 hrs by Western blot assay (reference value: 100%); type: functional
[17] = Reduction in PKMYT1 level in human MV4-11 cells by measuring residual activity at 200 nM measured after 24 hrs by Western blot assay (reference value: 100%); type: functional
[18] = molecular target: T1, Membrane-associated tyrosine- and threonine-specific cdc2-inhibitory kinase (Homo sapiens) (UniProt Q99640); assay: Induction of PKMYT1 degradation in human MV4-11 cells at 50 nM measured after 3 hrs by Western blot assay; type: cell-based
T1 sequence (whole entry): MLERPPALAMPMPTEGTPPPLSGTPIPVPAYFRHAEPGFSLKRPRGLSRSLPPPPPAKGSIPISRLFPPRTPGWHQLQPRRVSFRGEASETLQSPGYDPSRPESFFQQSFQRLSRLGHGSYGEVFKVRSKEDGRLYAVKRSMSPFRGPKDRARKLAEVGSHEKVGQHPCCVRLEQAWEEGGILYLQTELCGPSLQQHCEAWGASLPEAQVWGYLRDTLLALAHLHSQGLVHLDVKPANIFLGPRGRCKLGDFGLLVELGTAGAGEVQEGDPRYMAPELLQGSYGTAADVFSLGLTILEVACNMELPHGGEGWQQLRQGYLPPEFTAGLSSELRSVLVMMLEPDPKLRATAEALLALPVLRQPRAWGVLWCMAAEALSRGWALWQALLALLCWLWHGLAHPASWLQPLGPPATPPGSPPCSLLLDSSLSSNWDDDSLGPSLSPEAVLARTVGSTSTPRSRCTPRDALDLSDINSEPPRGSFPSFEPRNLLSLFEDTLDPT

[19] = AUClast in ICR mouse at 10 mg/kg, iv measured upto 360 mins; type: ADME, organism-based; set-up: dose 10 mg/kg, time < 360 min, route iv; conditions: in vivo
[20] = molecular target: Cyclin-dependent kinase 1 (Homo sapiens) (UniProt P06493); assay: as §1, with “lenalidomide” for “carfilzomib”; type: cell-based
[21] = molecular target: Serine/threonine-protein kinase PLK1 (Homo sapiens, UniProt P53350); assay: Inhibition of PLK1 (unknown origin)
[22] = molecular target: Cyclin-dependent kinase 1 (Homo sapiens) (UniProt P06493); assay: Inhibition of CDK1 in human MV4-11 cells assessed as dephosphorylation at 50 nM pretreated for 2 hrs followed by replacement with fresh medium and measured after 24 hrs by Western blot method; type: cell-based; conditions: time 26.0 hrs
[23] = molecular target: Cyclin-dependent kinase 1 (Homo sapiens) (UniProt P06493); assay: Inhibition of CDK1 phosphorylation in human MV4-11 cells assessed as reduction in phosphorylated CDK1 level by measuring residual activity at 50 uM pretreated for 2 hrs with proteasome inhibitor Iberdomide followed by incubation with compound for 3 hrs by Western blot analysis (reference value: 29%); type: cell-based
[24] = Reduction in PKMYT1 level in human MV4-11 cells by measuring residual activity at 25 nM measured after 24 hrs by Western blot assay (reference value: 100%); type: functional
[25] = molecular target: Cyclin-dependent kinase 1 (Homo sapiens) (UniProt P06493); assay: Inhibition of CDK1 phosphorylation in human MV4-11 cells by measuring residual activity at 50 nM measured after 24 hrs by Western blot assay; type: cell-based
[26] = molecular target: Cyclin-dependent kinase 1 (Homo sapiens) (UniProt P06493); assay: Inhibition of CDK1 phosphorylation in human MV4-11 cells assessed as reduction in phosphorylated CDK1 level by measuring residual activity at 50 uM pretreated for 2 hrs with proteasome inhibitor Bortezomib followed by incubation with compound for 3 hrs by Western blot analysis (reference value: 29%); type: cell-based
[27] = Observed AUCinfinity ICR mouse at 10 mg/kg, iv measured upto 360 mins; type: ADME, organism-based; set-up: dose 10 mg/kg, time < 360 min, route iv; conditions: in vivo
[28] = Half life in ICR mouse at 10 mg/kg, iv measured upto 360 mins; type: ADME, organism-based; conditions: in vivo
[29] = Downregulation of MAP3K4 in human MV4-11 cells assessed as 2 log fold change at 50 nM measured after 2 hrs by proteomic analysis; type: functional
MV4-11 [30] = assay: Induction of apoptosis in human MV4-11 cells assessed as increase in late apoptotic cells incubated for 48 hrs by annexin V and PI staining based flow cytometry analysis; type: functional, cell-based; conditions: dose 12.5-200 nM
[31] = molecular target: Cyclin-dependent kinase 1 (Homo sapiens) (UniProt P06493); assay: Inhibition of CDK1 phosphorylation in human MV4-11 cells by measuring residual activity at 12.5 nM measured after 24 hrs by Western blot assay; type: cell-based
[32] = Reduction in PKMYT1 level in human MV4-11 cells by measuring residual activity at 50 nM measured after 24 hrs by Western blot assay (reference value: 100%); type: functional
MV4-11 [33] = assay: Induction of apoptosis in human MV4-11 cells assessed as cleaved PARP expression at 100 nM incubated for 24 hrs by Western blot analysis; type: functional, cell-based
MV4-11 [34] = assay: Induction of apoptosis in human […] -/- MV4-11 cells at 50 to 400 nM measured after 48 hrs by AnnexinV/PI staining based flow cytometry analysis; type: functional, cell-based; conditions: dose 50-400 nM
MV4-11 [35] = assay: Effect on PLK1 mRNA expression in human MV4-11 cells at 50 nM measured upto 72 hrs by qRT-PCR assay; type: functional, cell-based

Sequence of Cyclin-dependent kinase 1 (Homo sapiens) (P06493 whole entry, looked up): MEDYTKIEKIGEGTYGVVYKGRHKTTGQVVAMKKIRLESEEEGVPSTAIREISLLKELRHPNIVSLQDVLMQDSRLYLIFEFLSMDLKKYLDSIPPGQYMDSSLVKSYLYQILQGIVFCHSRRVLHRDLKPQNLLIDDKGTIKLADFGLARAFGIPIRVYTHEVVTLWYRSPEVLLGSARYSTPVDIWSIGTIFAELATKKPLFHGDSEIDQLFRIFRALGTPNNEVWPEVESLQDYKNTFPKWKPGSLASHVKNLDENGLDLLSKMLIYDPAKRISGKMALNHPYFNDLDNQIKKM
Sequence of Serine/threonine-protein kinase PLK1 (P53350 whole entry): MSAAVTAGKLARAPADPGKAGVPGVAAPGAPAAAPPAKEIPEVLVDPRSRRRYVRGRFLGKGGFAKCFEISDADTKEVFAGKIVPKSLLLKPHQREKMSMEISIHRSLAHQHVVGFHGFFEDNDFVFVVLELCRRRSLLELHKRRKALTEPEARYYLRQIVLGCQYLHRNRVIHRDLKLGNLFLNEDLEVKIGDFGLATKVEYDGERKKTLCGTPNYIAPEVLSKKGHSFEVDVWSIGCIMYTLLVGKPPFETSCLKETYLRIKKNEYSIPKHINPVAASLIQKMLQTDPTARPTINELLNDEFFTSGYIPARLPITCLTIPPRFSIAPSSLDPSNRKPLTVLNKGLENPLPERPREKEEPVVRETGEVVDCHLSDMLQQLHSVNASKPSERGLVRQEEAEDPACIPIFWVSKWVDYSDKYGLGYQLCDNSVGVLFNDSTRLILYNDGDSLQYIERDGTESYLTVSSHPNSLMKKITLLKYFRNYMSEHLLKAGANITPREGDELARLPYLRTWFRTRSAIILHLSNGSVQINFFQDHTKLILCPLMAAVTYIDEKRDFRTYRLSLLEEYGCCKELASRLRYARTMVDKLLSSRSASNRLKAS

With C=CCn1c(=O)c2cnc(Nc3ccc(N4CCN(CCCCNc5cccc6c5C(=O)N(C5CCC(=O)NC5=O)C6=O)CC4)cc3)nc2n1-c1cccc(C(C)(C)O)n1 (stereo not given) the Activity (MV4-11 [1]) was “inactive”, the FC [2] was 0.38 and the Activity [3] was 22%. For the same compound, the Activity (MV4-11 [4]) was “Active”, the Activity [5] was 20% and the Activity (MV4-11 [6]) was “inactive”. For the same compound, the Activity (MV4-11 [7]) was “Dose-Dependent Effect”, the Activity (MV4-11 [8]) was “Dose-Dependent Effect” and the FC [9] was -0.1. For the same compound, the Activity [10] was 113%, the Activity [11] was 96% and the Activity (MV4-11 [12]) was “inactive”. For the same compound, the Activity (MV4-11 [13]) was “inactive”, the MRT inf [14] was 0.943 h and the Activity [15] was 80%. For the same compound, the Activity [16] was 37%, the Activity [17] was 25% and the Activity [18] was “Active”. The AUC(0-t) at 6 h [19] was 4580 ng·h/mL, the Activity [20] was 102% and the IC50 [21] was 2970 nM. For the same compound, the inhibition [22] was “Active”, the Activity [23] was 75% and the Activity [24] was 99%. It also gave an Activity [25] of 50%, an Activity [26] of 120% and an AUC(0-inf) [27] of 4660 ng·h/mL. For the same compound, the half-life [28] was 1.31 h, the FC [29] was -0.06 and the Activity (MV4-11 [30]) was “Dose-Dependent Effect”. The Activity [31] was 88%, the Activity [32] was 38% and the Activity (MV4-11 [33]) was “Active”. For the same compound, the Activity (MV4-11 [34]) was “inactive” and the Activity (MV4-11 [35]) was “inactive”.

Reference: ChEMBL document CHEMBL5331061, “Design, synthesis, and biological evaluation of Wee1 kinase degraders” (Eur J Med Chem, 2022)
